Laboratory results published in patent US9555009B2, “Ciprofloxacin loaded diethylaminoethyl cellulose nanoparticles” (priority 2014, dated 2017).

Conditions: XRD

O=C(O)c1cn(C2CC2)c2cc(N3CCNCC3)c(F)cc2c1=O [pure ciprofloxacin, Ciprofloxacin]
average crystallite size / particle size by Scherrer's equation: 3.22 nm
